Experimental findings from the supplement of paper PMC11208160 are described below.
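Also: IS621 recombinase and bridge RNA in Escherichia coli cells.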

The nature of the data set: recombinant barcode read abundance after kanamycin selection (control-corrected) (log10(CPM+1)); higher = more efficient recombination; sequences stand for … in AGTGCAGAGAAAATCGGCCAGTTTTCTCTGCCTGCAGTCCGCATGCCGT…AGATTTATGCAGCGGACTGCCTTTCTCCCAAAGTGATAAACCGGACAGTATCATGGACCGGTTTTCCCGGTAATCCGTATTTGCAAGGTTGGTTTCACT; site = the 11-nt target. In outline: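 The screen was pooled in E. coli and paired targets with IS621 bridge RNA target-binding loops. Recombination efficiency is taken from barcode counts per million at recombinant junctions, averaged and adjusted against the control. Values, in the form log10(CPM+1), come from duplicate plating on chloramphenicol/ampicillin LB agar or on chloramphenicol/ampicillin/kanamycin with 0.1 mM IPTG.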
As to “GTGTCTCCTTGGGTTCTAACCTGTTGCAT (site GTGTATCCTAT)”, the “recombinant barcode read abundance (log10)” value turned out to be 0.162. For the sequence “GTGTCTCCTTGGGTTCTAACCTGTTGCAT (site GTGTCTCCTAT)”, the “recombinant barcode read abundance (log10)” value worked out at 1.54. As to “GTGTCTCCTTGGGTTCTAACCTGTTGCAT (site GTGTGTCCTAT)”, the “recombinant barcode read abundance (log10)” value amounted to 0.457. As for “GTGTCTCCTTGGGTTCTAACCTGTTGCAT (site GTGTTTCCTAT)”, the figure is 0.243; as for “GTGTGTTCTTGGGTTCTAACCTGTTGCCT (site GTGTGTACTAG)”, 1.15; as for “GTGTGTTCTTGGGTTCTAACCTGTTGCCT (site GTGTGTCCTAG)”, 0.0466.

“GTGTGTTCTTGGGTTCTAACCTGTTGCCT (site GTGTGTGCTAG)”: the “recombinant barcode read abundance (log10)” value is 0.

Consider “GTGTGTTCTTGGGTTCTAACCTGTTGCCT (site GTGTGTTCTAG)”, for which the “recombinant barcode read abundance (log10)” value came to 0.726. Regarding “GTGTTGCCTTGGGTTCTAACCTGTTGCCT (site GAGTTGCCTAG)”, the “recombinant barcode read abundance (log10)” value was determined as 0.267.

With “GTGTTGCCTTGGGTTCTAACCTGTTGCCT (site GCGTTGCCTAG)”, the “recombinant barcode read abundance (log10)” value was determined as 0.392. For the sequence “GTGTTGCCTTGGGTTCTAACCTGTTGCCT (site GGGTTGCCTAG)”, the “recombinant barcode read abundance (log10)” value was 0.0383. With “GTGTTGCCTTGGGTTCTAACCTGTTGCCT (site GTGTTGCCTAG)”, the “recombinant barcode read abundance (log10)” value was determined as 0.73.

On to “GTTACCTCTTGGGTTCTAACCTGTTGCCT (site CAAGGTCCTCC)”, for which the “recombinant barcode read abundance (log10)” value was 0.0556. “GTTACCTCTTGGGTTCTAACCTGTTGCCT (site GTTACCTCTAG)”: the “recombinant barcode read abundance (log10)” value was found to be 0.859.

Regarding “GTTAGCCCTTGGGTTCTAACCTGTTGCAT (site GTTAGCCCTAT)”, the “recombinant barcode read abundance (log10)” value is 0.928. Take “GTTAGCCCTTGGGTTCTAACCTGTTGCAT (site TCACAGACTCG)”: the “recombinant barcode read abundance (log10)” value was found to be 0.0525. In the case of “GTTAGCCCTTGGGTTCTAACCTGTTGCGG (site GTCAGCCCTCC)”, the “recombinant barcode read abundance (log10)” value is 0.167. “GTTAGCCCTTGGGTTCTAACCTGTTGCGG (site GTTAGCCCTCC)”: the “recombinant barcode read abundance (log10)” value was 1.79. In the case of “GTTCCTGCTTGGGTTCTAACCTGTTGCCT (site GTTCCTCCTAG)” it was 0.265; in that of “GTTCCTGCTTGGGTTCTAACCTGTTGCCT (site GTTCCTGCTAG)”, 0.86; in that of “GTTCGAGCTTGGGTTCTAACCTGTTGCCT (site GTTAGAGCTAG)”, 0.276. As for “GTTCGAGCTTGGGTTCTAACCTGTTGCCT (site GTTCGAGCTAG)”, the “recombinant barcode read abundance (log10)” value was 1.61. In the case of “GTTCGAGCTTGGGTTCTAACCTGTTGCCT (site GTTGGAGCTAG)” it was 0.114; in that of “GTTCGAGCTTGGGTTCTAACCTGTTGCCT (site GTTTGAGCTAG)”, 0.153. Turning to “GTTCGAGCTTGGGTTCTAACCTGTTGCGG (site ATTCGAGCTCC)”, the “recombinant barcode read abundance (log10)” value is 1.74. “GTTCGAGCTTGGGTTCTAACCTGTTGCGG (site GTTCGAGCTCC)”: the “recombinant barcode read abundance (log10)” value stood at 2.49.

For “GTTGACCCTTGGGTTCTAACCTGTTGCCT (site GTAGACCCTCG)”, the “recombinant barcode read abundance (log10)” value was found to be 0.0195. As for “GTTGACCCTTGGGTTCTAACCTGTTGCCT (site GTTGACCCTAG)”, the figure is 2.2; as for “GTTGGCCCTTGGGTTCTAACCTGTTGCCT (site GATGGCCCTAG)”, 0.579; as for “GTTGGCCCTTGGGTTCTAACCTGTTGCCT (site GCTGGCCCTAG)”, 0.306. Regarding “GTTGGCCCTTGGGTTCTAACCTGTTGCCT (site GGTGGCCCTAG)”, the “recombinant barcode read abundance (log10)” value was 0.152. Consider “GTTGGCCCTTGGGTTCTAACCTGTTGCCT (site GTTGGCCCTAG)”, for which the “recombinant barcode read abundance (log10)” value is 1.94.
